Measured values as given in patent publication US20220324835A1 (Nurix Therapeutics, Inc., priority 2018, published 2022).

Experiments:
Cbl-b [1] = molecular target: T1, Cbl-b (Homo sapiens, UniProt Q13191); test: Cbl-b inhibition assay (Cbl-b activity assay, FRET, Biological Example 1; 100 mM NaCl, 60 nM Src kinase); assay type: biochemical; settings: upper bound stated in text lists; read-out: IC50 values in the Cbl-b inhibition assay of Biological Example 1
Summary of the method: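 N-terminally biotinylated Avi-tagged Cbl-b was mixed with Src kinase, UbcH5B covalently conjugated to Bodipy-fluorescein ubiquitin, and streptavidin-terbium. Src phosphorylation lets Cbl-b bind UbcH5B-Ub, giving terbium-fluorescein FRET; inhibition is read as loss of FRET signal.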

T-cell [2] = test: IL-2 secretion from T-cells stimulated with anti-CD3 antibody alone (Biological Example 2); assay type: cell-based, human; settings: T-cell, read-out: IL-2 secretion Anti-CD3 stimulation; for fold induction at 1 µM: 1 μM Cbl-b inhibitor; for fold induction at 8 µM: 8 μM Cbl-b inhibitor
T-cell [3] = test: IL-2 secretion from T-cells co-stimulated with anti-CD3 and anti-CD28 antibody (Biological Example 2); assay type: cell-based, human; settings: Homo sapiens, T-cell, read-out: IL-2 secretion Anti-CD3/Anti-CD28 stimulation; for fold induction at 0.3 µM: 0.3 μM Cbl-b inhibitor; for fold induction at 1 µM: 1 μM Cbl-b inhibitor; for fold induction at 4 µM: 4 μM Cbl-b inhibitor
Summary of the method: (§1)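 T-cells were stimulated with anti-CD3 antibody alone or with anti-CD28 antibody, in the presence or absence of Cbl-b inhibitor. IL-2 secretion or CD25 surface staining was measured, and values expressed as fold over the uninhibited baseline […].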

T-cell [4] = test: CD25 cell surface staining on T-cells co-stimulated with anti-CD3 and anti-CD28 antibody (Biological Example 2); assay type: cell-based, human; settings: Homo sapiens, T-cell, read-out: CD25 staining Anti-CD3/Anti-CD28 stimulation; for fold induction at 0.3 µM: 0.3 μM Cbl-b inhibitor; for fold induction at 1 µM: 1 μM Cbl-b inhibitor; for fold induction at 4 µM: 4 μM Cbl-b inhibitor
Summary of the method: as §1

Cbl-b [5] = molecular target: T1, Cbl-b; test: Cbl-b activity assay (Cbl-b inhibition assay), TR-FRET of Cbl-b interaction with UbcH5B-Ub; assay type: biochemical; settings: assay buffer with 100 mM NaCl, 60 nM Src kinase; read-out: Cbl-b activity IC50
Summary of the method: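 UbcH5B (C85K) conjugated to N-terminally Bodipy-Fluorescein-labeled ubiquitin served as the fluorescent partner. After compound preincubation, Src kinase (60 nM) with 1 mM ATP and 5 mM MgCl2 (final) was added for 1.5 h, followed by a further 1 h incubation. Some values were obtained with 50 mM NaCl and 30 nM Src.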

T-cell [6] = test: CD25 cell surface staining on T-cells stimulated with anti-CD3 antibody alone (Biological Example 2); assay type: cell-based, human; settings: T-cell, read-out: CD25 staining Anti-CD3 stimulation; for fold induction at 1 µM: 1 μM Cbl-b inhibitor; for fold induction at 8 µM: 8 μM Cbl-b inhibitor
[7] = Homo sapiens, fold change over baseline (anti-CD3/anti-CD28 stimulated T-cells without inhibitor)
[8] = fold change over baseline (anti-CD3/anti-CD28 stimulated T-cells without inhibitor)
[9] = fold change over baseline, primary human total T-cells

T1 sequence (Q13191 36-427): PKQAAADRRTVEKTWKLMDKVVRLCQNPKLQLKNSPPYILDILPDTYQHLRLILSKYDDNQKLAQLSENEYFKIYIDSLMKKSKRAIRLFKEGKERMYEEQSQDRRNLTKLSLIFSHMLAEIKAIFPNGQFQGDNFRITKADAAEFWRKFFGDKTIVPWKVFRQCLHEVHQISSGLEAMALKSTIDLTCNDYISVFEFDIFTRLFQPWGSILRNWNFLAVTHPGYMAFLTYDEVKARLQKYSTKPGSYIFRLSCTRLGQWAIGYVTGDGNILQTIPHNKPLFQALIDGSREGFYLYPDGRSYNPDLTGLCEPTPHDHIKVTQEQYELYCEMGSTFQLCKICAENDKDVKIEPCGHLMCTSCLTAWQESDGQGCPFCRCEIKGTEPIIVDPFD

| SMILES | IC50 (Cbl-b [1]) [nM] | fold induction at 1 µM (T-cell [2]; [7]) | fold induction at 0.3 µM (T-cell [3]; [8]) | fold induction at 1 µM (T-cell [3]; [8]) | fold induction at 0.3 µM (T-cell [4]; [8]) | fold induction at 1 µM (T-cell [4]; [8]) | IC50 (Cbl-b [5]) [nM] | fold induction at 1 µM (T-cell [6]; [7]) | fold induction at 1 µM (T-cell [2]; [9]) | fold induction at 8 µM (T-cell [2]; [9]) | fold induction at 0.3 µM (T-cell [3]; [9]) | fold induction at 1 µM (T-cell [3]; [9]) | fold induction at 4 µM (T-cell [3]; [9]) | fold induction at 0.3 µM (T-cell [4]; [9]) | fold induction at 1 µM (T-cell [4]; [9]) | fold induction at 4 µM (T-cell [4]; [9]) | fold induction at 1 µM (T-cell [6]; [9]) | fold induction at 8 µM (T-cell [6]; [9]) |
| --- | --- | --- | --- | --- | --- | --- | --- | --- | --- | --- | --- | --- | --- | --- | --- | --- | --- | --- |
| C[C@H](Cc1nncn1C)c1cc(-c2cncs2)nc(N2Cc3c(cccc3C(F)(F)F)C2=O)c1 [Example 682, (R)-2-(4-(1-(4-methyl-4H-1,2,4-triazol-3-yl)propan-2-yl)-6-(thiazol-5-yl)pyridin-2-yl)-4-(trifluoromethyl)isoindolin-1-one] | ≤ 1000 | 0.051 to 0.1 | 1.01 to 2.5 | 1.01 to 2.5 | 1.01 to 1.3 | 1.01 to 1.3 | 301 to 1000 | < 0.6 |  |  |  |  |  |  |  |  |  |  |
| Cc1cc2c(c(C3CC3)n1)CN(c1cccc(C3(Cc4nncn4C)COC3)c1)C2=O [Example 692, 4-cyclopropyl-6-methyl-2-(3-(3-((4-methyl-4H-1,2,4-triazol-3-yl)methyl)oxetan-3-yl)phenyl)-2,3-dihydro-1H-pyrrolo[3,4-c]pyridin-1-one] | ≤ 100 | 0.051 to 0.1 | 1.01 to 2.5 | 2.51 to 5 | 1.01 to 1.3 | 1.31 to 1.5 | < 100 | 0.801 to 1 |  |  |  |  |  |  |  |  |  |  |
| Cn1cnnc1CC1(c2cccc(NC(=O)c3cc(C4CC4)nc(C4CC4)n3)c2)COC1 [Compound 347, 2,6-dicyclopropyl-N-(3-(3-((4-methyl-4H-1,2,4-triazol-3-yl)methyl)oxetan-3-yl)phenyl)pyrimidine-4-carboxamide] | ≤ 100 |  |  |  |  |  | < 100 |  | 0.151 to 0.2 | > 0.201 | 2.51 to 5 | > 7.5 | > 7.5 | 1.01 to 1.3 | 1.01 to 1.3 | 1.31 to 1.5 | > 1 | > 1 |
| Cn1cnnc1CC1(c2cccc(N3Cc4c(cc(CN5CCCC(F)(F)C5)cc4C(F)(F)F)C3=O)c2)COC1 [Example 693, 6-((3,3-difluoropiperidin-1-yl)methyl)-2-(3-(3-((4-methyl-4H-1,2,4-triazol-3-yl)methyl)oxetan-3-yl)phenyl)-4-(trifluoromethyl)isoindolin-1-one] | ≤ 100 | > 0.201 | > 7.5 | > 7.5 | 1.51 to 1.75 | 1.51 to 1.75 | < 100 | > 1 |  |  |  |  |  |  |  |  |  |  |
| Cn1cnnc1CC1(c2cccc(N3Cc4c(cc(C5=CN6CCC5CC6)cc4C(F)(F)F)C3=O)c2)COC1 [Example 559, 6-(l-azabicyclo[2.2.2]oct-2-en-3-yl)-2-(3-(3-((4-methyl-4H-1,2,4-triazol-3-yl)methyl)oxetan-3-yl)phenyl)-4-(trifluoromethyl)isoindolin-1-one] | ≤ 300 | < 0.05 | 1.01 to 2.5 | 2.51 to 5 | 1.01 to 1.3 | 1.01 to 1.3 | 100 to 300 | 0.601 to 0.8 |  |  |  |  |  |  |  |  |  |  |
| Cc1cc(C(=O)Nc2cccc(C3(Cc4nncn4C)CCC3)c2)nc(C2CC2)n1 [Example 694, 2-cyclopropyl-6-methyl-N-(3-(1-((4-methyl-4H-1,2,4-triazol-3-yl)methyl)cyclobutyl)phenyl)pyrimidine-4-carboxamide] | ≤ 100 | 0.051 to 0.1 | > 7.5 | > 7.5 | 1.31 to 1.5 | 1.31 to 1.5 | < 100 | > 1 |  |  |  |  |  |  |  |  |  |  |
| Cc1cc(C(=O)Nc2cccc(C3(Cc4nncn4C)COC3)c2)n2ncc(C)c2n1 [Example 606, 3,5-dimethyl-N-(3-(3-((4-methyl-4H-1,2,4-triazol-3-yl)methyl)oxetan-3-yl)phenyl)pyrazolo[1,5-a]pyrimidine-7-carboxamide] | ≤ 100 | 0.051 to 0.1 | 2.51 to 5 | 2.51 to 5 | 1.01 to 1.3 | 1.01 to 1.3 | < 100 | 0.801 to 1 |  |  |  |  |  |  |  |  |  |  |
| Cn1cnnc1CC1(c2cccc(N3Cc4c(cc(CN5CCCC5)nc4C4CC4)C3=O)c2)COC1 [Example 579, 4-Cyclopropyl-2-(3-(3-((4-methyl-4H-1,2,4-triazol-3-yl)methyl)oxetan-3-yl)phenyl)-6-(pyrrolidin-1-ylmethyl)-2,3-dihydro-1H-pyrrolo[3,4-c]pyridin-1-one] | ≤ 100 | < 0.05 | 1.01 to 2.5 | 2.51 to 5 | 1.01 to 1.3 | 1.01 to 1.3 | < 100 | < 0.6 |  |  |  |  |  |  |  |  |  |  |
| CCOc1cc(N2Cc3c(cc([C@@H](C)N4CC[C@H](F)C4)cc3C(F)(F)F)C2=O)cc(C2(Cc3nncn3C)COC2)c1 [Example 691a, 2-(3-ethoxy-5-(3-((4-methyl-4H-1,2,4-triazol-3-yl)methyl)-oxetan-3-yl)phenyl)-6-((R)-1-((S)-3-fluoropyrrolidin-1-yl)ethyl)-4-(trifluoromethyl)-isoindolin-1-one] | ≤ 100 | > 0.201 | > 7.5 | > 7.5 | 1.31 to 1.5 | 1.51 to 1.75 | < 100 | > 1 |  |  |  |  |  |  |  |  |  |  |
| Cc1cnn2c(C(=O)Nc3cccc(C4(Cc5nncn5C)COC4)c3)cc(C(F)(F)F)nc12 [Example 599, 3-methyl-N-(3-(3-((4-methyl-4H-1,2,4-triazol-3-yl)methyl)oxetan-3-yl)phenyl)-5-(trifluoromethyl)pyrazolo[1,5-a]pyrimidine-7-carboxamide] | ≤ 1000 | < 0.05 | < 1 | 1.01 to 2.5 | 1.01 to 1.3 | 1.01 to 1.3 | 301 to 1000 | 0.601 to 0.8 |  |  |  |  |  |  |  |  |  |  |
| Cn1cnnc1CC1(c2cccc(NC(=O)c3cc(N4CC(C(F)F)C4)nc(C4CC4)n3)c2)COC1 [Example 610, 2-cyclopropyl-6-(3-(difluoromethyl)azetidin-1-yl)-N-(3-(3-((4-methyl-4H-1,2,4-triazol-3-yl)methyl)oxetan-3-yl)phenyl)pyrimidine-4-carboxamide] | ≤ 100 | 0.101 to 0.15 | 2.51 to 5 | > 7.5 | 1.01 to 1.3 | 1.01 to 1.3 | < 100 | 0.801 to 1 |  |  |  |  |  |  |  |  |  |  |
| Cc1conc1CC(C)c1cccc(N2Cc3c(cccc3C(F)(F)F)C2=O)c1 (centres unmarked) [Compound 268, 2-(3-(1-(4-methylisoxazol-3-yl)propan-2-yl)phenyl)-4-(trifluoromethyl)isoindolin-1-one] | ≤ 500 |  |  |  |  |  | 301 to 1000 |  | < 0.05 | 0.051 to 0.1 | 1.01 to 2.5 | 1.01 to 2.5 | 1.01 to 2.5 | 1.01 to 1.3 | 1.01 to 1.3 | 1.01 to 1.3 | 0.601 to 0.8 | 0.801 to 1 |
